The source of these data is patent US20170050961A1, “IMIDAZO[1,2-A]PYRIDINES AS SOLUBLE GUANYLATE CYCLASE STIMULATORS FOR THE TREATMENT OF CARDIOVASCULAR DISEASES” (BAYER PHARMA AKTIENGESELLSCHAFT, priority 2014, published 2017).

This assay deals with T1, recombinant guanylate cyclase reporter cell line (Rattus norvegicus, UniProt P19686+P20595).
T1 construct: expressed in transfected cells
T1 sequence (P19686 1-690): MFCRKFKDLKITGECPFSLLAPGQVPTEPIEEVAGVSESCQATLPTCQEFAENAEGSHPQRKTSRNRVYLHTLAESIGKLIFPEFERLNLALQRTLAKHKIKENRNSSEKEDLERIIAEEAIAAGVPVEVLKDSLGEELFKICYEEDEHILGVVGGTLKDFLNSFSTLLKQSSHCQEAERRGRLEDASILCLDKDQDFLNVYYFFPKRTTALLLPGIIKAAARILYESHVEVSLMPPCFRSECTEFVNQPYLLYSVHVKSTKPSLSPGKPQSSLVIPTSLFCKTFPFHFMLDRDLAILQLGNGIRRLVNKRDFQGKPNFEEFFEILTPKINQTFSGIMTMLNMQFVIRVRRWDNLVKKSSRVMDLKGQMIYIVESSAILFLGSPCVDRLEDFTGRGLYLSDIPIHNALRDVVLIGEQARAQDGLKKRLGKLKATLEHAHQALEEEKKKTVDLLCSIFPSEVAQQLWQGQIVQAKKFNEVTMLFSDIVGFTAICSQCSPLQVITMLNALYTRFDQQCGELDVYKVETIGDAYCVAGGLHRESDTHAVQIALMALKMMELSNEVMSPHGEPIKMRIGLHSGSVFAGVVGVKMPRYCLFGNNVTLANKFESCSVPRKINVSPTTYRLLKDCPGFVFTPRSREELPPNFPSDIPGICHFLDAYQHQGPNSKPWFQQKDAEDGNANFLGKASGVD
T1 sequence (P20595 1-619): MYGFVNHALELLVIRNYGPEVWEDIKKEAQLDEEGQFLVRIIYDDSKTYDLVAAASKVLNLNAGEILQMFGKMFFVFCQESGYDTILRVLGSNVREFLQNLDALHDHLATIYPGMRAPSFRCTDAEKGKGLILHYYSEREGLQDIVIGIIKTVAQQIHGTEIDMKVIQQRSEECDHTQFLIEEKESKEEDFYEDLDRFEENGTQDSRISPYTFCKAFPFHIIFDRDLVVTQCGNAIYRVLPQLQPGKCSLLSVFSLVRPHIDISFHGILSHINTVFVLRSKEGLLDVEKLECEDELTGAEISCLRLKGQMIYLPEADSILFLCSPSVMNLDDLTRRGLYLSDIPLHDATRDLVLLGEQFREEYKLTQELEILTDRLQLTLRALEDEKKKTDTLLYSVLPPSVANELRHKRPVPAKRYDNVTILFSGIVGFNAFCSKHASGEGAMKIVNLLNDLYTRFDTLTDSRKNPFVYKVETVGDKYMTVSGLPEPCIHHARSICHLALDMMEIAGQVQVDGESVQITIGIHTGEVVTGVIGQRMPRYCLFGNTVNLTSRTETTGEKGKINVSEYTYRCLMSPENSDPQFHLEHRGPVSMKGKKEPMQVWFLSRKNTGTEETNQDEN
Kind of assay: Effect on a recombinant guanylate cyclase reporter cell line. The assay is classed as cell-based. Particulars: MEC=minimum effective concentration; in some cases as mean values for individual determinations. As for the experimental part: B-2. Effect on a Recombinant Guanylate Cyclase Reporter Cell Line
The cellular activity of the compounds of the invention is determined using a recombinant guanylate cyclase reporter cell line, as described in F. Wunder et al., Anal Biochem. 339, 104-112 (2005).
Representative MEC values (MEC=minimum effective concentration) for the compounds of the invention are shown in the table below (in some cases as mean values for individual determinations): […]
With `CCC(C)(N)CNC(=O)c1c(C)nc2c(OCc3c(F)cccc3F)cc(-c3cccnc3)cn12` (racemic) [Example 1, rac-N-(2-Amino-2-methylbutyl)-8-[(2,6-difluorobenzyl)oxy]-2-methyl-6-(pyridin-3-yl)imidazo[1,2-a]pyridine-3-carboxamide], the MEC amounted to 10 µM.
As for `CCC(C)(N)CNC(=O)c1c(C)nc2c(OCc3c(F)cccc3F)cc(C3CC3)cn12.Cl` (racemic) [Example 2, rac-N-(2-Amino-2-methylbutyl)-6-cyclopropyl-8-[(2,6-difluorobenzyl)oxy]-2-methylimidazo[1,2-a]pyridine-3-carboxamide hydrochloride], the figure is 1.0 µM.
Under `CCC(C)(N)CNC(=O)c1c(C)nc2c(OCc3c(F)cccc3F)cc(-n3cccn3)cn12.Cl` (racemic) [Example 3, rac-N-(2-Amino-2-methylbutyl)-8-[(2,6-difluorobenzyl)oxy]-2-methyl-6-(1H-pyrazol-1-yl)imidazo[1,2-a]pyridine-3-carboxamide hydrochloride] stands 3.0 µM; under `CCC(C)(N)CNC(=O)c1c(C)nc2c(OCc3c(F)cccc3F)cc(COC)cn12.Cl` (racemic) [Example 4, rac-N-(2-Amino-2-methylbutyl)-8-[(2,6-difluorobenzyl)oxy]-6-(methoxymethyl)-2-methylimidazo[1,2-a]pyridine-3-carboxamide hydrochloride], 3.0 µM; under `CCC(C)(N)CNC(=O)c1c(C)nc2c(OCc3c(F)cccc3F)cc(OC(F)F)cn12` (racemic) [Example 5, rac-N-(2-Amino-2-methylbutyl)-8-[(2,6-difluorobenzyl)oxy]-6-(difluoromethoxy)-2-methylimidazo[1,2-a]pyridine-3-carboxamide], 3.0 µM.
As for `CCC(C)(N)CNC(=O)c1c(C)nc2c(OCc3c(F)cccc3F)cc(-c3cnn(C)c3)cn12` (racemic) [Example 6, rac-N-(2-Amino-2-methylbutyl)-8-[(2,6-difluorobenzyl)oxy]-2-methyl-6-(1-methyl-1H-pyrazol-4-yl)imidazo[1,2-a]pyridine-3-carboxamide], the MEC came out at 10 µM.
As for `CCC(C)(N)CNC(=O)c1c(C)nc2c(OCc3c(F)cccc3F)cc(-c3cnco3)cn12` (racemic) [Example 7, rac-N-(2-Amino-2-methylbutyl)-8-[(2,6-difluorobenzyl)oxy]-2-methyl-6-(1,3-oxazol-5-yl)imidazo[1,2-a]pyridine-3-carboxamide], the figure is 1.0 µM.
As for `CCC(C)(N)CNC(=O)c1c(COC)nc2c(OCc3c(F)cccc3F)cc(C)cn12.Cl` (racemic) [Example 8, rac-N-(2-Amino-2-methylbutyl)-8-[(2,6-difluorobenzyl)oxy]-2-(methoxymethyl)-6-methylimidazo[1,2-a]pyridine-3-carboxamide hydrochloride], the figure is 10 µM; as for `CCC(C)(N)CNC(=O)c1c(Cl)nc2c(OCc3c(F)cccc3F)cc(C)cn12` (racemic) [Example 20], 0.07 µM; as for `CCCC(C)(N)CNC(=O)c1c(Cl)nc2c(OCc3c(F)cccc3F)cc(C)cn12` (racemic) [Example 23, rac-N-(2-Amino-2-methylpentyl)-2-chloro-8-[(2,6-difluorobenzyl)oxy]-6-methylmidazo[1,2-a]pyridine-3-carboxamide], 0.1 µM.
As for `Cc1cc(OCc2c(F)cccc2F)c2nc(C)c(C(=O)NCC(C)(N)CC[Si](C)(C)C)n2c1` (single isomer, unassigned; enantiomer a) [Example 13, ent-N-[2-Amino-2-methyl-4-(trimethylsilyl)butyl]-8-[(2,6-difluorobenzyl)oxy]-2,6-dimethylimidazo[1,2-a]pyridine-3-carboxamide (enantiomer A)], the figure is 0.3 µM; as for `Cc1cc(OCc2c(F)cccc2F)c2nc(C)c(C(=O)NCC(C)(N)CCC[Si](C)(C)C)n2c1` (single isomer, unassigned; enantiomer a) [Example 15, ent-N-[2-Amino-2-methyl-5-(trimethylsilyl)pentyl]-8-[(2,6-difluorobenzyl)oxy]-2,6-dimethylimidazo[1,2-a]pyridine-3-carboxamide (enantiomer A)], 0.3 µM; as for `CCC(C)(N)CNC(=O)c1c(Cl)nc2c(OCc3c(F)cccc3F)cc(C)cn12` (single isomer, unassigned; enantiomer a) [Example 21, ent-N-(2-Amino-2-methylbutyl)-2-chloro-8-[(2,6-difluorobenzyl)oxy]-6-methylimidazo[1,2-a]pyridine-3-carboxamide (enantiomer A)], 0.03 µM.
For the compound `CCCC(C)(N)CNC(=O)c1c(Cl)nc2c(OCc3c(F)cccc3F)cc(C)cn12` (single isomer, unassigned; enantiomer a) [Example 24, ent-N-(2-Amino-2-methylpentyl)-2-chloro-8-[(2,6-difluorobenzyl)oxy]-6-methylimidazo[1,2-a]pyridine-3-carboxamide (enantiomer A)], the MEC worked out at 0.1 µM.
As for `Cc1cc(OCc2ncccc2F)c2nc(C)c(C(=O)NCC(C)(N)CCC(F)(F)F)n2c1` (single isomer, unassigned; enantiomer b) [Example 9, ent-N-(2-Amino-5,5,5-trifluoro-2-methylpentyl)-8-[(3-fluoropyridin-2-yl)methoxy]-2,6-dimethylimidazo[1,2-a]pyridine-3-carboxamide (enantiomer B)], the MEC came out at 0.3 µM.
Turning to `Cc1nc2c(OCc3ncccc3F)cc(Cl)cn2c1C(=O)NCC(C)(N)CCC(F)(F)F` (single isomer, unassigned; enantiomer b) [Example 10, ent-N-(2-Amino-5,5,5-trifluoro-2-methylpentyl)-6-chloro-8-[(3-fluoropyridin-2-yl)methoxy]-2-methylimidazo[1,2-a]pyridine-3-carboxamide (enantiomer B)], the MEC amounted to 0.3 µM.
Under `Cc1nc2c(OCc3ncccc3F)cccn2c1C(=O)NCC(C)(N)CCC(F)(F)F` (single isomer, unassigned; enantiomer b) [Example 11, ent-N-(2-Amino-5,5,5-trifluoro-2-methylpentyl)-8-[(3-fluoropyridin-2-yl)methoxy]-2-methylimidazo[1,2-a]pyridine-3-carboxamide (enantiomer B)] stands 1.0 µM.
For `Cc1cc(OCc2c(F)cccc2F)c2nc(C)c(C(=O)NCC(C)(N)CC[Si](C)(C)C)n2c1` (single isomer, unassigned; enantiomer b) [Example 14, ent-N-[2-Amino-2-methyl-4-(trimethylsilyl)butyl]-8-[(2,6-difluorobenzyl)oxy]-2,6-dimethylimidazo[1,2-a]pyridine-3-carboxamide (enantiomer B)], the MEC is 0.2 µM.
As for `Cc1cc(OCc2c(F)cccc2F)c2nc(C)c(C(=O)NCC(C)(N)CCC[Si](C)(C)C)n2c1` (single isomer, unassigned; enantiomer b) [Example 16, ent-N-[2-Amino-2-methyl-5-(trimethylsilyl)pentyl]-8-[(2,6-difluorobenzyl)oxy]-2,6-dimethylimidazo[1,2-a]pyridine-3-carboxamide (enantiomer B)], the figure is 1.0 µM.
Under `Cc1cc(OCc2c(F)cccc2F)c2nc(C3CC(F)(F)C3)c(C(=O)NCC(C)(N)CCC(F)(F)F)n2c1` (single isomer, unassigned; enantiomer b) [Example 17, ent-N-(2-Amino-5,5,5-trifluoro-2-methylpentyl)-8-[(2,6-difluorobenzyl)oxy]-2-(3,3-difluorocyclobutyl)-6-methylimidazo[1,2-a]pyridine-3-carboxamide (enantiomer B)] stands 3.0 µM.
